Measured values published in patent publication US20240270762A1, “PENICILLIN-BINDING PROTEIN INHIBITORS” (priority 2021, published 2024).
pIC50: −log10 of the molar value.

Assays:
[1] = biological target: T1, PBP3 from Acinetobacter baumannii (ATCC 19606) (Acinetobacter baumannii, UniProt A0ABX6CK25); experiment: Bocillin-FL fluorescence polarization competition binding, A. baumannii PBP3; conditions: fluorescence polarization competition binding assay using Bocillin-FL; read-out: A. baumannii PBP3 Potency
T1 sequence (A0ABX6CK25 64-610): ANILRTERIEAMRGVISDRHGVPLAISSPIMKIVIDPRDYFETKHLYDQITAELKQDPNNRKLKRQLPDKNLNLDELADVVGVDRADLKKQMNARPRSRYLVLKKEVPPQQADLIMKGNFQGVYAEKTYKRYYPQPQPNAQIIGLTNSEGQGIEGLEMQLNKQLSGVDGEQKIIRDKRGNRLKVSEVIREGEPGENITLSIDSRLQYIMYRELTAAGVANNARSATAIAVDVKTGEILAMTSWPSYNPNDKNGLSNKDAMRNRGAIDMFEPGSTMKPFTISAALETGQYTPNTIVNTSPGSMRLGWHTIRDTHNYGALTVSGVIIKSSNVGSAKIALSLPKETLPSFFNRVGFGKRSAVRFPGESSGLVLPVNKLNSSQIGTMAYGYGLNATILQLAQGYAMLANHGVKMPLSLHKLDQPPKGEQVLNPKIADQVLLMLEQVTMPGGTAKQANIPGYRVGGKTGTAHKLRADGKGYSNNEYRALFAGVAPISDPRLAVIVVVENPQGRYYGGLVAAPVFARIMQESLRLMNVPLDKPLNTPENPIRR
In short: (§1)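 Purified PBP was preincubated with inhibitor (E. coli PBP3 1.5 μM, 30 min; P. aeruginosa PBP3 0.75 μM, A. baumannii PBP3 0.2 μM and PBP1a 1 μM, 15 min), then Bocillin-FL (0.1 μM; 0.05 μM for PBP1a) added and FP read up to 60 min. EC50 = 50% loss of bound probe.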

A. baumannii ATCC 17978 = experiment: microbe, parasite or virus in culture; format: cell-based; conditions: Acinetobacter baumannii, ATCC17978, read-out: MIC, A. baumannii ATCC 17978
[2] = biological target: T2, PBP1a from Acinetobacter baumannii (ATCC 19606) (Acinetobacter baumannii, UniProt A0ABX6CK30); experiment: Bocillin-FL fluorescence polarization competition binding, A. baumannii PBP1a; conditions: fluorescence polarization competition binding assay using Bocillin-FL; read-out: A. baumannii PBP1a Potency
T2 sequence (A0ABX6CK30 1-851): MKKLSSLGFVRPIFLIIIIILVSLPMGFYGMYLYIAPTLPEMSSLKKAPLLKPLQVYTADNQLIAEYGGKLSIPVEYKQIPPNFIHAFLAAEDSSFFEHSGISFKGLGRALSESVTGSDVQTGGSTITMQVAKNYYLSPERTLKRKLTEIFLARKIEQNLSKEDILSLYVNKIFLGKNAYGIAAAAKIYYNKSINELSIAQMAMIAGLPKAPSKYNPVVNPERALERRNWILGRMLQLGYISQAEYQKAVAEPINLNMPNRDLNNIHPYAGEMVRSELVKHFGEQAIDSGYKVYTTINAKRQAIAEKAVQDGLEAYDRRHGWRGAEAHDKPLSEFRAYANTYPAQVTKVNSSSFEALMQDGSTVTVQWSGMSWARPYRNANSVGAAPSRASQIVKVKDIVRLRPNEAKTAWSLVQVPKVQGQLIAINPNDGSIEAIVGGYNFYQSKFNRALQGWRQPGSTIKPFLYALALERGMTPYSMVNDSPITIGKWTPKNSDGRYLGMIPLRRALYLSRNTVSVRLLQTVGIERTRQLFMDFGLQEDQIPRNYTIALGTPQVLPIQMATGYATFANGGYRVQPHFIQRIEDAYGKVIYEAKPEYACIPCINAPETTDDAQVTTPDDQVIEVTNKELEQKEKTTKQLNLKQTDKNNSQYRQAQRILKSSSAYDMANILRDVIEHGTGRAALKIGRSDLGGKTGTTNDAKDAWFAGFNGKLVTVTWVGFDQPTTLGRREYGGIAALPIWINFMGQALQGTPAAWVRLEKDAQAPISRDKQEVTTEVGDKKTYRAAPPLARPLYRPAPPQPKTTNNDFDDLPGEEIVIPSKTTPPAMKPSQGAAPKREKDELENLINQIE
In short: as §1

SMILES | pIC50 [1] | MIC (A. baumannii ATCC 17978) [µg/mL] | pIC50 [2]
O=C(NCCS(=O)(=O)N1CCN(C(=O)NC(C(=O)N[C@H]2Cc3ccc(F)c(C(=O)O)c3OB2O)c2cc(F)c(O)c(O)c2Cl)C1=O)Nc1cccc(O)c1 (stereo partly drawn) [Example 266, (3R)-3-(2-(2-chloro-5-fluoro-3,4-dihydroxyphenyl)-2-(3-((2-(3-(3-hydroxyphenyl)ureido)ethyl)sulfonyl)-2-oxoimidazolidine-1-carboxamido)acetamido)-7-fluoro-2-hydroxy-3,4-dihydro-2H-benzo[e][1,2]oxaborinine-8-carboxylic acid] | > 5.00 | < 1 | < 3.60
O=C(NCCS(=O)(=O)N1CCN(C(=O)N[C@@H](C(=O)N[C@H]2Cc3ccc(F)c(C(=O)O)c3OB2O)c2cc(F)c(O)c(O)c2Cl)C1=O)Nc1cccnc1 [Example 267, (R)-3-((R)-2-(2-chloro-5-fluoro-3,4-dihydroxyphenyl)-2-(2-oxo-3-((2-(3-(pyridin-3-yl)ureido)ethyl)sulfonyl)imidazolidine-1-carboxamido)acetamido)-7-fluoro-2-hydroxy-3,4-dihydro-2H-benzo[e][1,2]oxaborinine-8-carboxylic acid] | > 5.00 | < 1 | < 3.60
O=C(NCCCS(=O)(=O)N1CCN(C(=O)NC(C(=O)N[C@H]2Cc3ccc(F)c(C(=O)O)c3OB2O)c2cc(F)c(O)c(O)c2Cl)C1=O)c1ccccc1 (stereo partly drawn) [Example 268, (3R)-3-(2-(3-((3-benzamidopropyl)sulfonyl)-2-oxoimidazolidine-1-carboxamido)-2-(2-chloro-5-fluoro-3,4-dihydroxyphenyl)acetamido)-7-fluoro-2-hydroxy-3,4-dihydro-2H-benzo[e][1,2]oxaborinine-8-carboxylic acid] | > 5.00 | < 1 | < 3.60
O=C(NCCCS(=O)(=O)N1CCN(C(=O)NC(C(=O)N[C@H]2Cc3ccc(F)c(C(=O)O)c3OB2O)c2cc(F)c(O)c(O)c2Cl)C1=O)c1ccc(O)cc1 (stereo partly drawn) [Example 269, (3R)-3-(2-(2-chloro-5-fluoro-3,4-dihydroxyphenyl)-2-(3-((3-(4-hydroxybenzamido)propyl)sulfonyl)-2-oxoimidazolidine-1-carboxamido)acetamido)-7-fluoro-2-hydroxy-3,4-dihydro-2H-benzo[e][1,2]oxaborinine-8-carboxylic acid] | > 5.00 | < 1 | < 3.60
O=C(NCCCS(=O)(=O)N1CCN(C(=O)N[C@H](C(=O)N[C@H]2Cc3ccc(F)c(C(=O)O)c3OB2O)c2cc(F)c(O)c(O)c2Cl)C1=O)c1cccc(O)c1 [Example 270, (R)-3-((S)-2-(2-chloro-5-fluoro-3,4-dihydroxyphenyl)-2-(3-((3-(3-hydroxybenzamido)propyl)sulfonyl)-2-oxoimidazolidine-1-carboxamido)acetamido)-7-fluoro-2-hydroxy-3,4-dihydro-2H-benzo[e][1,2]oxaborinine-8-carboxylic acid] | > 5.00 | < 1 | < 3.60
O=C(NCCCS(=O)(=O)N1CCN(C(=O)N[C@@H](C(=O)N[C@H]2Cc3ccc(F)c(C(=O)O)c3OB2O)c2cc(F)c(O)c(O)c2Cl)C1=O)c1cccc(O)c1 [Example 271, (R)-3-((R)-2-(2-chloro-5-fluoro-3,4-dihydroxyphenyl)-2-(3-((3-(3-hydroxybenzamido)propyl)sulfonyl)-2-oxoimidazolidine-1-carboxamido)acetamido)-7-fluoro-2-hydroxy-3,4-dihydro-2H-benzo[e][1,2]oxaborinine-8-carboxylic acid] | > 5.00 | < 1 | < 3.60
O=C(NCCCS(=O)(=O)N1CCN(C(=O)NC(C(=O)N[C@H]2Cc3ccc(F)c(C(=O)O)c3OB2O)c2cc(F)c(O)c(O)c2Cl)C1=O)c1ccncc1 (stereo partly drawn) [Example 272, (3R)-3-(2-(2-chloro-5-fluoro-3,4-dihydroxyphenyl)-2-(3-((3-(isonicotinamido)propyl)sulfonyl)-2-oxoimidazolidine-1-carboxamido)acetamido)-7-fluoro-2-hydroxy-3,4-dihydro-2H-benzo[e][1,2]oxaborinine-8-carboxylic acid] | > 5.00 | < 1 | < 3.60
O=C(NCCCS(=O)(=O)N1CCN(C(=O)NC(C(=O)N[C@H]2Cc3ccc(F)c(C(=O)O)c3OB2O)c2cc(F)c(O)c(O)c2Cl)C1=O)c1cccnc1 (stereo partly drawn) [Example 273, (3R)-3-(2-(2-chloro-5-fluoro-3,4-dihydroxyphenyl)-2-(3-((3-(nicotinamido)propyl)sulfonyl)-2-oxoimidazolidine-1-carboxamido)acetamido)-7-fluoro-2-hydroxy-3,4-dihydro-2H-benzo[e][1,2]oxaborinine-8-carboxylic acid] | > 5.00 | < 1 | < 3.60
O=C(NCCCS(=O)(=O)N1CCN(C(=O)NC(C(=O)N[C@H]2Cc3ccc(F)c(C(=O)O)c3OB2O)c2cc(F)c(O)c(O)c2Cl)C1=O)c1nccs1 (stereo partly drawn) [Example 274, (3R)-3-(2-(2-chloro-5-fluoro-3,4-dihydroxyphenyl)-2-(2-oxo-3-((3-(thiazole-2-carboxamido)propyl)sulfonyl)imidazolidine-1-carboxamido)acetamido)-7-fluoro-2-hydroxy-3,4-dihydro-2H-benzo[e][1,2]oxaborinine-8-carboxylic acid] | > 5.00 | < 1 | < 3.60
O=C(O)c1c(F)ccc2c1OB(O)[C@@H](NC(=O)C(NC(=O)N1CCN(S(=O)(=O)CCCNC(=O)[C@@H]3CCCN3)C1=O)c1cc(F)c(O)c(O)c1Cl)C2 (stereo partly drawn) [Example 275, (3R)-3-(2-(2-chloro-5-fluoro-3,4-dihydroxyphenyl)-2-(2-oxo-3-((3-((S)-pyrrolidine-2-carboxamido)propyl)sulfonyl)imidazolidine-1-carboxamido)acetamido)-7-fluoro-2-hydroxy-3,4-dihydro-2H-benzo[e][1,2]oxaborinine-8-carboxylic acid] | > 5.00 | < 1 | < 3.60
O=C(NCCCS(=O)(=O)N1CCN(C(=O)NC(C(=O)N[C@H]2Cc3ccc(F)c(C(=O)O)c3OB2O)c2cc(F)c(O)c(O)c2Cl)C1=O)Nc1ccc(O)cc1 (stereo partly drawn) [Example 276, (3R)-3-(2-(2-chloro-5-fluoro-3,4-dihydroxyphenyl)-2-(3-((3-(3-(4-hydroxyphenyl)ureido)propyl)sulfonyl)-2-oxoimidazolidine-1-carboxamido)acetamido)-7-fluoro-2-hydroxy-3,4-dihydro-2H-benzo[e][1,2]oxaborinine-8-carboxylic acid] | > 5.00 | < 1 | < 3.60
